Values of other authors as cited in PubChem BioAssay AID1259409 (Chemical Carcinogenesis Research Information System (CCRIS), 2018).
Values joined by “and” are separate entries in the source; they are usually repeats but may differ in a detail not shown here. Equal values may be shown once.

Test system: rodent chemically induced tumor inhibition, incidence and multiplicity
Test: CCRIS tumor inhibitor studies
Conditions: Promoter: NONE USED

For CC1=C(/C=C/C(C)=C/C=C/C(C)=C/C=C/C=C(C)/C=C/C=C(C)/C=C/C2=C(C)CCCC2(C)C)C(C)(C)CCC1, the outcome (Carcinogen: N-METHYL-N'-NITRO-N-NITROSOGUANIDINE, 70-25-7, Dose [Inhibitor]: 0, 0.4% IN DIET FOR 2 WK PRIOR TO FIRST CARCINOGEN DOSE FOLLOWED BY 0, 0.2% IN DIET FOR 52 WK (STUDY DURATION: 54 WK), Dose [Inhibitor]: 0, 0.4% IN DIET FOR 2 WK PRIOR TO FIRST CARCINOGEN DOSE FOLLOWED BY 0, 0.2% IN DIET FOR 52 WK (STUDY DURATION: 54 WK), Route [Inhibitor]: ORAL, Species: RAT, Strain/Sex: WISTAR/MALE, Target Tissue: Type of Lesion: SMALL INTESTINE: FIBROSARCOMA, Dose [Carcinogen]: 80 UG/ML IN DRINKING WATER FOR 52 WK) is given as 0/36 (0%), 1/35 (3%), -300%, not calculated, the “tumour outcome (control, treated, inhibition, significance)” value (Carcinogen: N-METHYL-N'-NITRO-N-NITROSOGUANIDINE, 70-25-7, Dose [Inhibitor]: 0, 0.4% IN DIET FOR 2 WK PRIOR TO FIRST CARCINOGEN DOSE FOLLOWED BY 0, 0.2% IN DIET FOR 52 WK (STUDY DURATION: 54 WK), Dose [Inhibitor]: 0, 0.4% IN DIET FOR 2 WK PRIOR TO FIRST CARCINOGEN DOSE FOLLOWED BY 0, 0.2% IN DIET FOR 52 WK (STUDY DURATION: 54 WK), Route [Inhibitor]: ORAL, Species: RAT, Strain/Sex: WISTAR/MALE, Target Tissue: Type of Lesion: SMALL INTESTINE: LEIOMYOMA, Dose [Carcinogen]: 80 UG/ML IN DRINKING WATER FOR 52 WK) is given as 1/36 (3%), 0/35 (0%), 100%, not calculated and the “tumour outcome (control, treated, inhibition, significance)” value (Carcinogen: NONE USED, Dose [Inhibitor]: 0, 0.005% IN DRINKING WATER AD LIBITUM FOR 40 WK (STUDY DURATION: 40 WK), Route [Inhibitor]: ORAL, Species: MOUSE, Strain/Sex: C3H/HE/MALE, Target Tissue: Type of Lesion: LIVER: TUMOR) is given as 100%, 100%, 0%, not significant. The “tumour outcome (control, treated, inhibition, significance)” value (Carcinogen: NONE USED, Dose [Inhibitor]: 0, 0.005% IN DRINKING WATER FOR 40 WK (STUDY DURATION: 40 WK), Route [Inhibitor]: ORAL, Species: MOUSE, Strain/Sex: C3H/HE/MALE, Target Tissue: Type of Lesion: LIVER: TUMORS) was 16/16 (100%), 16/16 (100%), 0%, not significant, the “tumour outcome (control, treated, inhibition, significance)” value (Carcinogen: NONE USED, Dose [Inhibitor]: 0, 0.05% IN DRINKING WATER AD LIBITUM FOR 40 WK (STUDY DURATION: 40 WK), Route [Inhibitor]: ORAL, Species: MOUSE, Strain/Sex: C3H/HE/MALE, Target Tissue: Type of Lesion: LIVER: TUMOR) was 100%, 100%, 0%, not significant and the “tumour outcome (control, treated, inhibition, significance)” value (Carcinogen: NONE USED, Dose [Inhibitor]: 0, 0.05% IN DRINKING WATER FOR 40 WK (STUDY DURATION: 40 WK), Route [Inhibitor]: ORAL, Species: MOUSE, Strain/Sex: C3H/HE/MALE, Target Tissue: Type of Lesion: LIVER: TUMORS) was 16/16 (100%), 17/17 (100%), 0%, not significant. For the same molecule, the “tumour outcome (control, treated, inhibition, significance)” value (Carcinogen: NONE USED, Dose [Inhibitor]: 0, 2.5 MG/D IN DRINKING WATER FROM 8 MO OF AGE (STUDY DURATION: 15 MO), Route [Inhibitor]: ORAL, Species: MOUSE, Strain/Sex: C3H/FEMALE, Target Tissue: Type of Lesion: MAMMARY GLAND: TUMOR) was 12/20 (60%), 4/19 (21%), 65%, not calculated, the “tumour outcome (control, treated, inhibition, significance)” value (Carcinogen: UV-B IRRADIATION (HANOVIA QUARTZ CONTACT LAMP IN 290-320 NM RANGE), Dose [Inhibitor]: 0.4 ML OF BEADLET SOLUTION CONTAINING 0.1 G/4 ML 3/WK FOR 1 MO FOLLOWED BY 0.2 ML OF BEADLET SOLUTION CONTAINING 0.1 G/4, Route [Inhibitor]: INTRAPERITONEAL, Species: MOUSE, Strain/Sex: ALBINO, Target Tissue: Type of Lesion: SKIN: SQUAMOUS CELL CARCINOMA, Dose [Carcinogen]: 6.5 KJ/SQ M 3/WK FOR 15 MO BEGINNING 1 MO POST AGENT DOSE) was 14/21 (67%), 6/20 (25%), 63%, p=0.0189 and 14/21 (67%), 5/18 (28%), 58%, p=0.0154 and the “tumour outcome (control, treated, inhibition, significance)” value (Carcinogen: UV-B IRRADIATION (WESTINGHOUSE FS-20 SUNLAMP 55% IN 290-320 NM RANGE), Dose [Inhibitor]: 3.3 G/100 G OF PELLETIZED FEED BEGINNING 10 WK PRIOR TO CARCINOGEN DOSE TO 24 WK POST CARCINOGEN DOSE (STUDY DURATION: 3, Route [Inhibitor]: ORAL, Species: MOUSE, Strain/Sex: SKH, Target Tissue: Type of Lesion: SKIN: TUMOR, Dose [Carcinogen]: 80 KJ/SQ M TOTAL ENERGY DURING A 220 MINUTE SINGLE EXPOSURE) was 4/9 (44%), 2/7 (29%), 34%, not significant. For the same molecule, the “tumour outcome (control, treated, inhibition, significance)” value (Carcinogen: UVB IRRADIATION, Dose [Inhibitor]: 0, 1% IN DIET FOR DURATION OF STUDY BEGINNING 3 WK PRIOR TO IRRADIATION (STUDY DURATION: 33 WK), Route [Inhibitor]: ORAL, Species: MOUSE, Strain/Sex: C3H/HEN/FEMALE, Target Tissue: Type of Lesion: SKIN: TUMOR, Dose [Carcinogen]: 6 J/M2/SEC 30 MIN/D, 5 D/WK FOR 27 WK) was 81%, 67%, 17%, not significant.
